Laboratory results: patent EP3928779A1 (Chugai Seiyaku Kabushiki Kaisha, priority 2014, dated 2016)

What was measured:
[1] = tested on: rat small-intestinal brush border membrane vesicles; assay: Inhibitory effect on 33PO4 uptake into rat small-intestinal brush border membrane vesicles (rapid filtration method); assay type: biochemical; conditions: 33PO4 uptake into rat small-intestinal BBMVs; test compound 1 µM; reacted for 60 seconds
Outline: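 Uptake of ^33PO4 was measured by rapid filtration and liquid scintillation counting of filter-retained vesicles, after quenching with ice-cold 110 mM NaCl/1 mM KH2PO4/10 mM HEPES pH 7.5. Vesicles were brush border membranes from the upper small intestine of female Wistar rats aged 4–5 weeks.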

[2] = tested on: adenine-induced renal failure rat; assay: Suppressive effect on rise in serum phosphorus concentration of adenine-induced renal failure rat (0.1% in feed, 3 days); assay type: in vivo; conditions: feed or water, 72 h, adenine-induced renal failure Wistar male rat, test compound 0.1% of mass concentration in feed for 3 days, Fiske-Subbarow method, read-out: rate (%) of suppression of a rise in serum phosphorus concentration
From the text: Adenine was forcedly administered orally to each Wistar male rat (7-8 weeks old) to impair renal functions and thereby prepare a hyperphosphatemia model ([…], Nagano N, Burke SK, Fukushima N. Sevelamer hydrochloride prevents ectopic calcification and renal osteodystrophy in chronic renal failure rats. Kidney Int. 2003 Aug; 64 (2): 441-50). Each test compound was mixed at a ratio of 0.1% of mass concentration with feed. The animal was fed with a given amount of the feed for 3 days. A group given feed non-supplemented with a test compound was used as a reference pathological group, and an adenine-unadministered group given feed non-supplemented with a test compound was used as a normal group. 3 days after the start of administration of the test compound, blood was collected from the jugular vein, and serum was collected. Serum phosphorus concentrations were measured by the Fiske-Subbarow method. The rate of suppression of a rise in serum phosphorus concentration was determined according to the following expression: Rate (%) of suppression of a rise in serum phosphorus concentration = (1-[(Serum phosphorus concentration of the test compound-treated pathological group)-(Serum phosphorus concentration of the normal group)]/[(Serum phosphorus concentration of the reference pathological group)-(Serum phosphorus concentration of the normal group)]) × 100 [formula] As a result, each test compound was confirmed to have a suppressive effect on a rise in serum phosphorus concentration. […]

What does the source list for `COC[C@@H]1CCCN1CCOc1ccc(CN2C(=O)C(C(=O)Nc3ccc(C(F)(F)F)cc3-c3cc(C(F)(F)F)ncn3)=C(O)C3(CCC3)N2C)c(F)c1F` [Example 345, 6-[[2,3-Difluoro-4-[2-[(2S)-2-(methoxymethyl)pyrrolidin-1-yl]ethoxy]phenyl]methyl]-9-hydroxy-5-methyl-7-oxo-N-[4-(trifluoromethyl)-2-[6-(trifluoromethyl)pyrimidin-4-yl]phenyl]-5,6-diazaspiro[3.5]non-8-ene-8-carboxamide]?
Rate of uptake inhibition (%) (1 µM) [1]: 73%; inhibition in vivo at 0.1 % in feed [2]: 19%

Which “Rate of uptake inhibition (%) (1 µM)” value [1] does the source give for `CSc1ccc(-c2cc(Cl)ccc2NC(=O)C2=C(O)[C@H](C(C)(C)C)N(C)N(Cc3ccc(OCCN4CCOCC4)c(F)c3F)C2=O)cn1` [Example 269, (3S)-3-tert-Butyl-N-[4-chloro-2-(6-methylsulfanylpyridin-3-yl)phenyl]-1-[[2,3-difluoro-4-(2-morpholin-4-ylethoxy)phenyl]methyl]-4-hydroxy-2-methyl-6-oxo-3H-pyridazine-5-carboxamide] here?
The value was 80%.

And the inhibition in vivo at 0.1 % in feed [2]?
Its inhibition in vivo at 0.1 % in feed is 15%.

Which “Rate of uptake inhibition (%) (1 µM)” value [1] does the source give for `CN1N(Cc2ccc(OCCCCC(=O)O)c(F)c2F)C(=O)C(C(=O)Nc2ccc(C(F)(F)F)cc2-c2cc(C(F)(F)F)ncn2)=C(O)C12CCCC2` [Example 333, 5-[2,3-Difluoro-4-[[10-hydroxy-6-methyl-8-oxo-9-[[4-(trifluoromethyl)-2-[6-(trifluoromethyl)pyrimidin-4-yl]phenyl]carbamoyl]-6,7-diazaspiro[4.5]dec-9-en-7-yl]methyl]phenoxy]pentanoic acid] here?
Its value is 29%.

And the inhibition in vivo at 0.1 % in feed [2]?
Its inhibition in vivo at 0.1 % in feed is 8%.

With `C[C@]12CCCN1N(Cc1ccc(OCCCCCCOC[C@H](O)CO)c(F)c1F)C(=O)C(C(=O)Nc1cnc(C(F)(F)F)nc1-c1ccc(C(F)(F)F)nc1)=C2O` [Example 156, (4aR)-1-[[4-[6-[(2R)-2,3-Dihydroxypropoxy]hexoxy]-2,3-difluorophenyl]methyl]-4-hydroxy-4a-methyl-2-oxo-N-[2-(trifluoromethyl)-4-[6-(trifluoromethyl)pyridin-3-yl]pyrimidin-5-yl]-6,7-dihydro-5H-pyrrolo[1,2-b]pyridazine-3-carboxamide] as the molecule, how does the “Rate of uptake inhibition (%) (1 µM)” value [1] read?
Its value is 59%.

And the inhibition in vivo at 0.1 % in feed [2]?
Its inhibition in vivo at 0.1 % in feed is 21%.

How did the “Rate of uptake inhibition (%) (1 µM)” value [1] turn out when `C[C@]12CCCN1N(Cc1ccc(OCCN3CCOCC3)c(F)c1F)C(=O)C(C(=O)Nc1ccc(C(F)(F)F)cc1-c1cc(C(F)(F)F)ncn1)=C2O` [Example 157, (4aR)-1-[[2,3-Difluoro-4-(2-morpholin-4-ylethoxy)phenyl]methyl]-4-hydroxy-4a-methyl-2-oxo-N-[4-(trifluoromethyl)-2-[6-(trifluoromethyl)pyrimidin-4-yl]phenyl]-6,7-dihydro-5H-pyrrolo[1,2-b]pyridazine-3-carboxamide] was run?
Its value is 89%.

What about the inhibition in vivo at 0.1 % in feed [2] of the same molecule?
The inhibition in vivo at 0.1 % in feed was 30%.

How did the “Rate of uptake inhibition (%) (1 µM)” value [1] turn out when `CN1[C@@H](C(C)(C)C)C(O)=C(C(=O)Nc2ccc(C(F)(F)F)cc2-c2cc(C(F)(F)F)ncn2)C(=O)N1Cc1ccc(OCCN2CCOCC2)c(F)c1F` [Example 264, (3S)-3-tert-Butyl-1-[[2,3-difluoro-4-(2-morpholin-4-ylethoxy)phenyl]methyl]-4-hydroxy-2-methyl-6-oxo-N-[4-(trifluoromethyl)-2-[6-(trifluoromethyl)pyrimidin-4-yl]phenyl]-3H-pyridazine-5-carboxamide] was run?
The value was 48%.

What about the inhibition in vivo at 0.1 % in feed [2] of the same molecule?
Its inhibition in vivo at 0.1 % in feed is 15%.

Which results are given for `C[C@]12CCCN1N(Cc1ccc(OCCCCOC[C@H](O)CO)c(F)c1F)C(=O)C(C(=O)Nc1ccc(C(F)(F)F)cc1-c1cc(C(F)(F)F)ncn1)=C2O` [Example 152, (4aR)-1-[[4-[4-[(2R)-2,3-Dihydroxypropoxy]butoxy]-2,3-difluorophenyl]methyl]-4-hydroxy-4a-methyl-2-oxo-N-[4-(trifluoromethyl)-2-[6-(trifluoromethyl)pyrimidin-4-yl]phenyl]-6,7-dihydro-5H-pyrrolo[1,2-b]pyridazine-3-carboxamide]?
Rate of uptake inhibition (%) (1 µM) [1]: 54%; inhibition in vivo at 0.1 % in feed [2]: 26%

`Cc1c(C#N)ncnc1-c1cc(C(F)(F)F)ccc1NC(=O)C1=C(O)[C@H](C(C)(C)C)N(C)N(Cc2ccc(OCCN3CCOCC3)c(F)c2F)C1=O` [Example 270, (3S)-3-tert-Butyl-N-[2-(6-cyano-5-methylpyrimidin-4-yl)-4-(trifluoromethyl)phenyl]-1-[[2,3-difluoro-4-(2-morpholin-4-ylethoxy)phenyl]methyl]-4-hydroxy-2-methyl-6-oxo-3H-pyridazine-5-carboxamide] was tested. Which “Rate of uptake inhibition (%) (1 µM)” value [1] did it give?
The value was 75%.

What about the inhibition in vivo at 0.1 % in feed [2] of the same molecule?
Its inhibition in vivo at 0.1 % in feed is 20%.

Which “Rate of uptake inhibition (%) (1 µM)” value [1] does the source give for `C[C@]12CCCN1N(Cc1ccc(OCCCOC[C@H](O)CO)c(F)c1F)C(=O)C(C(=O)Nc1ccc(C(F)(F)F)cc1-c1ccc(C(F)(F)F)nc1)=C2O` [Example 147, (4aR)-1-[[4-[3-[(2R)-2,3-Dihydroxypropoxy]propoxy]-2,3-difluorophenyl]methyl]-4-hydroxy-4a-methyl-2-oxo-N-[4-(trifluoromethyl)-2-[6-(trifluoromethyl)pyridin-3-yl]phenyl]-6,7-dihydro-5H-pyrrolo[1,2-b]pyridazine-3-carboxamide] here?
Its value is 57%.

And the inhibition in vivo at 0.1 % in feed [2]?
The inhibition in vivo at 0.1 % in feed was 35%.
